Experimental data: publication PMC12662201, “How ATP and dATP reposition class III ribonucleotide reductase cone domains to regulate enzyme activity” (Science Advances, 2025)

How the values were obtained:
StNrdD (WT-StNrdD) = molecular target: T1, StNrdD (WT-StNrdD) (Streptococcus thermophilus, UniProt A0A3G6JS83); assay: cryo-EM ([…] Å); format: binding; settings: allosteric specificity effector site at dimer interface; seen with both ATP and dATP; 1 mM TTP, 1 mM GTP, pH 7.5
T1 construct: gene DF198_09700; full length, 734 residues, N-terminal His6 with thrombin site (pET15b), tag cleaved before crystallization; expressed in E. coli T7 Express; dimer; Cys400 thiyl, Gly697 glycyl radical
T1 sequence (A0A3G6JS83 1-734): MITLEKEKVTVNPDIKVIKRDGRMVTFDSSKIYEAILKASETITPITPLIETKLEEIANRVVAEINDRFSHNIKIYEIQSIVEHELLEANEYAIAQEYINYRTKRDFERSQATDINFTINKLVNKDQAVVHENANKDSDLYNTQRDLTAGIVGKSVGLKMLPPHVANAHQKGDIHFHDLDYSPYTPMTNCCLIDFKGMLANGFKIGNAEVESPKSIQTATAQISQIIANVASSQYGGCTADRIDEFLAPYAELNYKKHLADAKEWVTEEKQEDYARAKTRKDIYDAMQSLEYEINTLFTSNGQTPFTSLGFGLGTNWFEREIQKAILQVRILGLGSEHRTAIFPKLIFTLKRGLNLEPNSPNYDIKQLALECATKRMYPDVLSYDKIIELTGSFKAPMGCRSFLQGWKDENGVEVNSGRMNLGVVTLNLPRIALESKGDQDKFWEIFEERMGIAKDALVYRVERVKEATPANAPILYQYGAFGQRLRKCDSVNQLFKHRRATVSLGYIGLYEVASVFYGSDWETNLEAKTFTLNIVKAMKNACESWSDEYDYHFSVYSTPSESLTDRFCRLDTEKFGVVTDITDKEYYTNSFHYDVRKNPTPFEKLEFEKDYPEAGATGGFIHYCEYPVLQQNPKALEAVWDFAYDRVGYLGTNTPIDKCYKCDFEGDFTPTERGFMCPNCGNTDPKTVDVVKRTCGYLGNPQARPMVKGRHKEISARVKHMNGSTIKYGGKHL

ΔConeOnly-StNrdD = molecular target: T2, ΔConeOnly-StNrdD (Streptococcus thermophilus, UniProt A0A3G6JS83); assay: LC-MS/MS of dGTP product after glycyl radical activation; format: biochemical; settings: 1 mM GTP, 1 mM TTP, no activity effector; 0.15 µM glycyl radical; 37 °C, 120 s; anaerobic
T2 construct: gene DF198_09700; cone domain removed (residues 1 to 115 deleted), connector kept; N-terminal His6 with thrombin site (pET15b); expressed in E. coli T7 Express
T2 sequence (A0A3G6JS83 116-734): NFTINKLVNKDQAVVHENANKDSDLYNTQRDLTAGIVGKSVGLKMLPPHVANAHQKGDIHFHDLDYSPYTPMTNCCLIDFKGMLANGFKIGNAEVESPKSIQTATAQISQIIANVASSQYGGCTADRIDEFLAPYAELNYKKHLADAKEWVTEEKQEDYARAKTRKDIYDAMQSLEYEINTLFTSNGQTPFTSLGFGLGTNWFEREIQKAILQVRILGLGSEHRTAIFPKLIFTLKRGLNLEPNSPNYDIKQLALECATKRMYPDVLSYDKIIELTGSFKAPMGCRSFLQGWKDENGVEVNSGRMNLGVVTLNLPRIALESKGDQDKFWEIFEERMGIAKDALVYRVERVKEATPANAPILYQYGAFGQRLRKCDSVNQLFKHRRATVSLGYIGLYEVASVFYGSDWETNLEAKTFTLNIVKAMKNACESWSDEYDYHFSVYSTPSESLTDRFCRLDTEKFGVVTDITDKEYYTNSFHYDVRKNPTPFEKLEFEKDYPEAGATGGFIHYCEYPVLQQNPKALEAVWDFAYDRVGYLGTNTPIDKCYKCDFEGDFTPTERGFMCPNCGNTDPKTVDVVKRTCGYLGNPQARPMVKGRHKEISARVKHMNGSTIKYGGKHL

Question: Cc1cn([C@H]2C[C@H](O)[C@@H](COP(=O)(O)OP(=O)(O)OP(=O)(O)O)O2)c(=O)[nH]c1=O [TTP] was tested. Which “cryo-EM (3.6 Å)” value (StNrdD (WT-StNrdD)) did it give?
Answer: both structures have density for the TTP specificity effector bound at the dimer interface

Question: How did the “LC-MS/MS of dGTP product after glycyl radical activation” value (ΔConeOnly-StNrdD) turn out when Nc1nc2c(ncn2[C@@H]2O[C@H](COP(=O)(O)OP(=O)(O)OP(=O)(O)O)[C@@H](O)[C@H]2O)c(=O)[nH]1 [GTP] was run?
Answer: GTP turnover proceeds in the absence of allosteric inhibitor dATP, although at a lower yield
